{"source": "patent US20200061062A1", "about": "“INHIBITORS OF HUMAN PHOSPHATIDYLINOSITOL 3-KINASE DELTA” (ICOS Corporation, priority 2000, published 2020)", "key": {"rats": {"tested_on": "rats", "assay": "Six-day air pouch model, TNF challenge, leukocyte counts and neutrophil elastase in lavage fluid", "assay_type": "in vivo, rat", "conditions": "100 mg/kg orally, TNF 2.5 ng", "procedure": "The six-day air pouch model is an in vivo inflammation model that histologically resembles a joint synovium. A lining of organized mononuclear cells and fibroblasts develops that closely resembles a synovial cavity. The model represents an “acute” model of a chronic disease (e.g., rheumatoid arthritis). This model allows for the in vivo evaluation of agents to block cellular influx into the air pouch under the influence of an inflammatory stimulus.\n(§1) The test was performed as follows: on day zero, groups of rats were shaved and 10 ml of air was injected subcutaneously on the back of each, forming a pouch. On day three, 10 ml of air was reinjected. […] Six hours following dosing, the air pouches of both groups received 2.5 ng of TNF. Twelve hours following dosing, the pouches were washed with saline, and the resulting lavage fluid was analyzed for leukocyte counts and neutrophil elastase activity. In addition, blood was drawn to determine the levels of D-030 in circulation. […] Reductions in specific leukocyte counts were as follows: neutrophils (90%), eosinophils (66%), and lymphocytes (70%)."}, "T cell proliferation": {"tested_on": "T cell proliferation", "assay": "Stimulated T cell proliferation (Mouse TCE Stim, Table 4)", "assay_type": "cell-based", "conditions": "stimulated T cell proliferation, read-out: Mouse TCE Stim (EC50)"}, "mouse": {"tested_on": "mouse", "assay": "Mouse air pouch, TNF-α challenge, elastase exocytosis in lavage", "assay_type": "in vivo", "conditions": "32 mg/kg in LABRAFIL one hour before and two hours after TNF-α, FIG. 9"}, "human neutrophils [1]": {"tested_on": "human neutrophils", "assay": "Elastase exocytosis from neutrophils (fMLP-induced)", "assay_type": "cell-based", "conditions": "neutrophil (PMN) elastase release", "summary_of_the_method": "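Human blood neutrophils (Ficoll-Hypaque) treated with compound or DMSO, then stimulated 90 min at 37 °C with 1 μM fMLP plus 0.01 mg/mL cytochalasin B, 1.0 μM NaN3 and 5 μg/mL L-methionine. Supernatant elastase read at 410 nm over 2 h on MeO-suc-AAPV-pNA, normalized to uninhibited; EC50 in μM.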"}, "[2]": {"assay": "Levels of D-030 in circulation (air pouch test)", "assay_type": "in vivo", "conditions": "rat, blood, po; rats, 100 mg/kg in PEG 400 orally, twelve hours following dosing; read-out: Average compound in circulation", "procedure": "as §1"}, "[3]": {"tested_on": "Murine splenocytes (Balb/c)", "assay": "B cell proliferation in response to cell surface IgM stimulation", "assay_type": "cell-based", "conditions": "Mus musculus, Splenocyte; stimulated B cell proliferation; read-out: Mouse BCR Stim (EC50)", "summary_of_the_method": "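Balb/c splenocytes (2×10^5/well, 10% FBS/RPMI) preincubated 30-60 min with inhibitor, then stimulated with goat F(ab′)2 anti-mouse IgM μ-chain at 25 μg/mL final. Cultured 3 days at 37° C., [^3H]-thymidine pulsed for final 4 h; incorporation counted as CPM. Values are EC50 (μM).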"}, "human neutrophils [4]": {"tested_on": "human neutrophils", "assay": "fMLP-induced human neutrophil migration", "assay_type": "cell-based", "conditions": "neutrophil (PMN) migration, read-out: Human PMN Migration (EC50)", "procedure": "Neutrophils have the intrinsic capacity to migrate through tissues, and are one of the first cell types to arrive at the sites of inflammation or tissue injury. The effect of D-000 on neutrophil migration towards a concentration gradient of fMLP was measured. The day before the migration assays were performed, 6-well plates were coated with recombinant ICAM-1/Fc fusion protein (Van der Vieren et al., Immunity, 3:683-690 (1995)) (25 μg/mL in bicarbonate buffer, pH 9.3) and left overnight at 4° C. After washing, 1% agarose solution, in RPMI-1640 with 0.5% bovine serum albumin (BSA), was added to wells with or without an inhibitor, and plates were placed into a refrigerator before punching holes in the gelled agarose to create plaques (1 central hole surrounded by 6 peripheral ones per well).\nHuman neutrophils were obtained as described above, and resuspended in RPMI medium supplemented with 0.5% BSA at 5×10^6 cells/mL. After combining equal volumes of neutrophil suspension and medium (either with DMSO or a serial dilution of the test compound in DMSO), neutrophils were aliquoted into the peripheral holes, while the central hole received fMLP (5 μM). Plates were incubated at 37° C. in the presence of 5% CO2 for 4 hr, followed by termination of migration by the addition of 1% glutaraldehyde solution in D-PBS. After removing the agarose layer, wells were washed with distilled water and dried.\nAnalysis of neutrophil migration was conducted on a Nikon DIAPHOT® inverted microscope (1× objective) video workstation using the NIH 1.61 program. Using Microsoft Excel and Table Curve 4 (SSPS Inc., Chicago Ill.) programs, a migration index was obtained for each of the studied conditions. Migration index was defined as the area under a curve representing number of migrated neutrophils versus the net distance of migration per cell.\nUsing the methods described in Examples 3-5, above, compounds of the invention were tested for inhibitory activity and potency in assays of stimulated B and T cell proliferation, neutrophil (PMN) migration, and neutrophil (PMN) elastase release. In Table 4, the values shown are effective concentrations of the compound (EC50; μM). Where no value is given, no assay was performed."}}, "data": [{"smiles": "Cc1ccccc1-n1c(Cn2cnc3c(N)ncnc32)nc2cccc(C)c2c1=O", "note": "[Compound D-030, 2-(6-Aminopurin-9-ylmethyl)-5-methyl-3-o-tolyl-3H-quinazolin-4-one]", "values": [{"measurement": "Reduction in eosinophils count in lavage fluid", "setting": "rats", "result": 66, "unit": "%"}, {"measurement": "Reduction in lymphocytes count in lavage fluid", "setting": "rats", "result": 70, "unit": "%"}, {"measurement": "Reduction in neutrophils count in lavage fluid", "setting": "rats", "result": 90, "unit": "%"}, {"measurement": "Reduction in total leukocytes in the lavage fluid compared to vehicle controls", "setting": "rats", "result": 82, "unit": "%"}, {"measurement": "Reduction of neutrophil elastase levels versus vehicle controls", "setting": "rats", "result": 15, "unit": "%"}, {"measurement": "EC50", "setting": "T cell proliferation", "result": 6000, "unit": "nM"}, {"measurement": "Elastase activity in the air pouch lavages of TNF challenged animals", "setting": "mouse", "result": "significant decrease"}, {"measurement": "EC50", "setting": "human neutrophils [1]", "result": "400 ± 500", "unit": "nM"}, {"measurement": "concentration at 12 h", "setting": "[2]", "result": 8.7, "unit": "µM"}, {"measurement": "EC50", "setting": "[3]", "result": "100 ± 100", "unit": "nM"}, {"measurement": "EC50", "setting": "human neutrophils [4]", "result": 200, "unit": "nM"}]}]}
